Values of other authors in patent US20130210878A1, “BENDAMUSTINE COMPOSITIONS AND METHODS THEREFORE” (Innopharma, Inc., priority 2012, published 2013).
Like-named read-outs stand apart in the source and are kept apart here.

Conditions: 0.25 mg/ml in 0.9% sodium chloride

For `Cl.Cn1c(CCCC(=O)O)nc2cc(N(CCCl)CCCl)ccc21` [Bendamustine HCl, 1H-benzimidazole-2-butanoic acid, 5-[bis(2-chloro-ethyl)amino]-1 methyl-, monohydrochloride], the time stable (4° C.) is listed as 4 days and the time stable (23° C.) is listed as 0.38 days.
